Experimental data published in patent US4073941A, “Aralkyl amides having antidepressive activity” (priority 1975, dated 1978).
Values after ≈ are worked out from the molar mass of the structure shown. Structures can show the parent of a compound that is named as a salt. Where two headings read alike, the source gives them in different places.

How the values were obtained:
[1] = tested on: uptake of 14C-5-HT (5-hydroxytryptamine) in brain slices; test: Inhibition of the uptake of 14C-5-HT in mouse midbrain slices, compound added in vitro; format: cell-based, mice; settings: 5 min, concentration producing 50 percent decrease of active uptake (ED50), 5-HT 1×10^-7 M, 5 min incubation
Method: (§1) 1. Inhibition of the uptake of carbon-14 5-HT and tritiated noradrenaline in vitro and in vivo
(§2) The method is described by Ross, Renyi and Ogren in European Journal of Pharmacology 17 (1972), 107-112. Tricyclic antidepressant drugs of type imipramine added in vitro or given in vivo to mice decrease the uptake of ^14 C-5-HT and ^3 H-NA in vitro. In the in vitro experiments different concentrations of the test compound were added to the incubation medium. In the in vivo experiments different doses of the test drug were administered intraperitoneally half an hour before the animals were killed. The incubation performance was the same in the two types of experiments, i.e. the midbrain was taken out and sliced and incubated in a mixture consisting of, per 100 mg of brain slices, 0.2 n-mole of ^14 C-5-HT, 0.2 n-mole of ^3 H-NA and 11 μmole of glucose in 2 ml of Krebs-Henseleit buffer, pH 7.4. The incubation time was 5 minutes. The radioactive amines taken up in the slices were dissolved in Soluene-350® (Packard) and the amounts were determined with the double labelling technique by liquid scintillation. The concentration or dose producing 50 percent decrease of the active uptake (ED50) was determined graphically from dose-response curves. Active uptake is defined as that part of the radioactive uptake which is inhibited by a high concentration of cocaine. […]

[2] = tested on: uptake of 3H-NA (noradrenaline) in brain slices; test: Inhibition of the uptake of 3H-noradrenaline in mouse midbrain slices, compound added in vitro; format: cell-based, mice; settings: 5 min, read-out: Inhibition (50 %) of uptake in vitro NA
Method: as §1, §2

[3] = tested on: uptake of 14C-5-HT (5-hydroxytryptamine) in brain slices; test: Inhibition of the uptake of 14C-5-HT in midbrain slices after in vivo i.p. administration to mice; settings: Mus musculus, ip, 0.5 h; dose producing 50 percent decrease of active uptake (ED50); i.p. half an hour before killing; 5-HT 1×10^-7 M
Method: as §1
(§3) The method is described by Ross, Renyi and Ogren in European Journal of Pharmacology 17 (1972), 107-112. […] In the in vitro experiments different concentrations of the test compound were added to the incubation medium. In the in vivo experiments different doses of the test drug were administered intraperitoneally half an hour before the animals were killed. The incubation performance was the same in the two types of experiments, i.e. the midbrain was taken out and sliced and incubated in a mixture consisting of, per 100 mg of brain slices, 0.2 n-mole of ^14 C-5-HT, 0.2 n-mole of ^3 H-NA and 11 μmole of glucose in 2 ml of Krebs-Henseleit buffer, pH 7.4. The incubation time was 5 minutes. The radioactive amines taken up in the slices were dissolved in Soluene-350® (Packard) and the amounts were determined with the double labelling technique by liquid scintillation. The concentration or dose producing 50 percent decrease of the active uptake (ED50) was determined graphically from dose-response curves. Active uptake is defined as that part of the radioactive uptake which is inhibited by a high concentration of cocaine. All doses were given at least to four animals.

[4] = tested on: uptake of 3H-NA (noradrenaline) in brain slices; test: Inhibition of the uptake of 3H-noradrenaline in midbrain slices after in vivo i.p. administration to mice; settings: Mus musculus, ip, 0.5 h; dose producing 50 percent decrease of active uptake (ED50); i.p. half an hour before killing; 1-noradrenaline 1×10^-7 M
Method: as §1, §3

[5] = tested on: 5-HTP induced behavioural syndrome in mice; test: 5-HTP response potentiation test; format: in vivo; settings: Mus musculus, least dose producing maximal score (+3) in all animals, before dl-5-HTP 90 mg/kg i.v.
Method: 1. 5-HTP response potentiation test
Inhibition of the uptake of 5-HT potentiates the effects of administered 5-hydroxytryptophan (5-HTP) probably by increasing the amount of 5-HT at the receptor. Three mice are given the test drugs 1 hour (or 4, 24 hours) before d1-5-HTP 90 mg/kg i.v. 5-HTP alone gives only a weak behavioural syndrome but in pretreated mice there is seen a characteristic behavioural syndrome, which comes within 5 minutes: tremor, lordosis, abduction of the hindlegs, head-twiches. The strength of the syndrome is scored from 0 to +3. Each group consists of 3 animals and at least 4 groups were tested at 25 mg/kg i.p. Control groups receiving imipramine (Tofranil®) are used as reference, since imipramine constantly potentiated d1-5-HTP. The least dose of the test compound producing maximal score (+3) in all animals is estimated from a logarithmic dose-response curve, and is denoted "effective dose" in the following Table.

| SMILES | IC50 [1] | IC50 ([2]; concentration producing 50 percent decrease of active uptake (ED50), 1-noradrenaline 1×10^-7 M, mouse midbrain slices, 5 min incubation) | ED50 [3] | ED50 [4] | minimal effective dose [5] | IC50 ([2]; Mus musculus) |
| --- | --- | --- | --- | --- | --- | --- |
| CN(C)CCCN1c2ccccc2CCc2ccccc21 [Imipramine, imipramine] | 0.1 µg/mL (≈ 0.357 µM) | 0.06 µg/mL (≈ 0.214 µM) | 24 mg/kg | 6 mg/kg | 15 mg/kg | – |
| CC(N)C(=O)NC(C)(C)Cc1ccc(Cl)cc1 (stereo not shown) [GEA 609, 2-amino-N^1 - 3-(4-chlorophenyl)-2-methyl-2-propyl! propanoic acid amide hydrochloride] | 0.7 µg/mL | – | 20 mg/kg | > 40 mg/kg | 0.5 mg/kg | > 10 µg/mL |
